Measured values: patent US20110165173A1, “THERAPEUTIC AGENT AND DETECTION REAGENT FOR ARTERIOSCLEROTIC DISEASE WHICH TARGETS FOR SALUSIN” (PROTEINEXPRESS CO., LTD., priority 2007, published 2011)

Key:
[1] = test system: ATP-binding cassette transporter A1 (ABCA-1) protein expression; assay: ABCA-1 protein expression in human monocyte-derived macrophages (Western blotting); format: cell-based; conditions: 0, 0.2, 0.4, 0.6, 0.8, or 1.0 nM during 7-day culture
Description: Monocyte-derived macrophages that had been cultured for 7 days were washed with PBS 3 times, followed by solubilization with the addition of 10% SDS (sodium dodecyl sulfate) (100 μL) to each dish. Each cell extraction solution was scooped up with a cell scraper, followed by pulverization with the use of a 1-mL TERUMO syringe and a 23-G injection needle for fragmentation (shearing). The resultant was centrifuged at 15,000 rpm for 3 minutes (Himac CF15D2 high-speed micro refrigerated centrifuge; Hitach, Ltd.). The supernatant protein concentration was assayed by the bicinchoninic acid (BCA) method (Pierce) and used as a cell extraction solution for Western blotting.
For ABCA-1 protein detection, a reaction with an anti-human ABCA-1 antibody was carried out on a transfer membrane at room temperature for 1 hour. For a primary antibody (anti-human ABCA-1 rabbit polyclonal antibody (Funakoshi Corporation)), a stock solution (5 μL) was diluted 1,000-fold with PBS-0.1% Tween 20 (5 mL), and the diluent was used. The transfer membrane was washed with PBS-0.1% Tween 20. Then, a reaction with a secondary antibody (anti-rabbit IgG antibody: anti-rabbit IgG donkey antibody conjugated with horseradish peroxidase (HRP) (GE Healthcare Bio-Science)) was carried out at room temperature for 1 hour. […]

[2] = test system: macrophages of apoE-deficient mice; assay: Foaming (oxidized LDL-induced cholesterol ester accumulation) of macrophages collected from treated apoE-deficient mice; format: in vivo; conditions: 0.6 nmol/kg/h, four weeks
Description: (§1) 13-week-old male apoE-deficient mice (72 mice) were divided into the following 6 groups: (i) physiological salt saline (control); (ii) salusin-α (0.6 nmol/kg/h); (iii) salusin-β (0.6 nmol/kg/h); (iv) salusin-α (0.6 nmol/kg/h)+anti-salusin-α serum (1.4 μg/kg/h); (v) salusin-β (0.6 nmol/kg/h)+anti-salusin-β serum (1.4 μg/kg/h); and (vi) anti-salusin-β serum (1.4 μg/kg/h). The mice were subjected to continuous subcutaneous administration with the use of an osmotic mini-pump for 4 to 8 weeks. The osmotic mini-pump and the solution contained therein were changed every week.
On Day 4 after intraperitoneal administration of thioglycollate, transudatory macrophages were collected and cultured with an RPMI1640 solution containing 10% bovine fetal serum. Oxidized LDL (10 μg/mL) and [^3H] oleic acid (0.1 mM) were added to the culture solution. After 13 hours, the radioactivity of intracellularly accumulated cholesterol [^3H] oleic acid was assayed for evaluation of foaming of macrophages.

apoE-deficient mice = assay: Arteriosclerotic lesions of aorta in apoE-deficient mice under continuous subcutaneous administration (oil red O staining); format: in vivo; conditions: 0.6 nmol/kg/h continuous subcutaneous
Description: Effects of continuous administration of salusin-α and salusin-β on arteriosclerosis were examined with the use of apoE-deficient mice as arteriosclerosis animal models. Herein, antiserum effects of salusin-α or salusin-β were also examined. In addition to examination of arteriosclerotic lesions, foaming of macrophages, which is important for formation of arteriosclerosis primary lesions, was focused on and cholesterol ester accumulation caused by oxidized LDL was assayed. Expression analysis was carried out for scavenger receptors (CD36 and SR-A) capable of recognizing oxidized LDL, an intracellular cholesterol esterification enzyme (acyl-CoA) (cholesterol acyltransferase 1 (ACAT1)), and ATP-binding cassette transporter A1 (ABCA1), ABCG1, and SR-BI, which are involved in the mechanism of extracellular transportation of excessive intracellular free cholesterol (cholesterol efflux).
The above animal experiments were carried out in accordance with the experimental practice guidelines established by Showa University (Japan). All the apoE-deficient mice used for this study were purchased from the Jackson Laboratory (Bar Harbor, Me., U.S.A.).
as §1
Mice ingesting a normal diet were subjected to experiments. The following parameters were assayed.
Each collected aorta was cut in the longitudinal direction, followed by oil red O staining for examination of the surface area of each atherosclerosis lesion with lipid pigmentation. Adobe Photoshop (Adobe System Inc., San Jose, Calif., U.S.A.) was used for identification of arteriosclerotic lesions, followed by analysis using NIH Scion Image (Scion Corp., Frederick, Md., U.S.A.) for quantification of the surface area of each lesion. In addition, cross-sections of the vicinity of the aorta (immediately below the aortic valve) were prepared, followed by oil red O staining for detailed analysis of arteriosclerotic lesions.

Substance	ABCA-1 protein expression [1]	foaming of macrophages due to oxidized LDL relative to control ([2]; P<0.01)	proximal aorta cross-sections, oil red O staining, compared with control group (apoE-deficient mice; four weeks)	mean arteriosclerotic lesion surface area of the aortic arch relative to control group (apoE-deficient mice; four weeks, P<0.005)	foaming of macrophages due to oxidized LDL (intracellular cholesterol ester accumulation), fraction of control ([2]; P<0.05)	arteriosclerotic lesion surface area (apoE-deficient mice; eight weeks)	plaque formation (apoE-deficient mice; eight weeks)
salusin-β: peptide (SEQ ID NO: 3) comprising 20 amino acid residues, generated by processing from preprosalusin (AIFIFIRWLLKLGHHGRAPP; listed as Homo sapiens) [reference compound]	no significant changes	approximately 2 times	formation of atheroma stained red with oil red O and thickening of the blood vessel wall were observed	approximately 2.5 times	–	–	–
salusin-α: peptide (SEQ ID NO: 1) comprising 28 amino acid residues, generated by processing from preprosalusin (SGALPPAPAAPRPALRAQRAGPAGPGAK; listed as Homo sapiens)	no significant changes	–	–	–	approximately ¼	reduced to less than half	obvious plaque formation was not observed
